Results from article PMC6219668 (Oncotarget, 2018).

Columns and labels:
[1] = system: MOLM-13; assay: cells; assay type: cell-based; conditions: Homo sapiens; MOLM-13, AML, dominant CDK6; read-out: IC50, mean ± SD
[2] = system: MELJUSO; assay: cells; assay type: cell-based; conditions: Homo sapiens, MEL-JUSO, 72 h
[3] = system: NCI-H460; assay: cells; assay type: cell-based; conditions: Homo sapiens, NCI-H460, 72 h
[4] = system: T-47d; assay: cells; assay type: cell-based; conditions: Homo sapiens, T47D, 72 h
[5] = system: A2058; assay: cells; assay type: cell-based; conditions: Homo sapiens, A2058, 72 h
[6] = system: BT-483; assay: cells; assay type: cell-based; conditions: Homo sapiens, BT-483, 72 h
[7] = system: HMEX1906; assay type: in vivo; conditions: mouse, in vivo, 250 mg/kg
Method: Animals were housed in a temperature-
In all studies, tumor volume was calculated
For using the following formula: (length × width2)/2. Percent
Data are presented as the percent

[8] = system: NCI-H1573; assay: cells; assay type: cell-based; conditions: Homo sapiens, NCI-H1573, 72 h
[9] = system: TE-10; assay: cells; assay type: cell-based; conditions: Homo sapiens, TE-10, 72 h
[10] = system: HCC-4006; assay: cells; assay type: cell-based; conditions: Homo sapiens, HCC4006; HCC-4006, 72 h
[11] = system: COR-L105; assay: cells; assay type: cell-based; conditions: Homo sapiens, COR-L105, 72 h
[12] = system: CDK9/cyclin T1; conditions: cited from earlier work
[13] = system: hs944T; assay: cells; assay type: cell-based; conditions: 72 h
[14] = Maximum tolerated dosage; assay type: in vivo; conditions: mice, once daily
[15] = system: HPAX1317; assay type: in vivo; conditions: HPAX1317, Pancreatic, Rb present; 250 mg/kg qd
[16] = system: UACC-62; assay: cells; assay type: cell-based; conditions: Homo sapiens, UACC-62, 72 h
[17] = system: NCI-H3255; assay: cells; assay type: cell-based; conditions: Homo sapiens, NCI-H3255, 72 h
[18] = system: TE-5; assay: cells; assay type: cell-based; conditions: Homo sapiens, TE-5, 72 h
[19] = system: TE-5; assay: cells; assay type: cell-based; conditions: Homo sapiens, TE-5, 72 h; remark: listed apart in the source
[20] = system: PC-14; assay: cells; assay type: cell-based; conditions: Homo sapiens, PC-14, 72 h

SMILES	IC50 [1] [µM]	IC50 [2] [µM]	IC50 [3] [µM]	IC50 [4] [µM]	IC50 [5] [µM]	IC50 [6] [µM]	T/C [7]	IC50 [8] [µM]	IC50 [9] [µM]	IC50 [10] [µM]	IC50 [11] [µM]	activity against CDK9/cyclin T1 [12]	IC50 [13] [µM]	maximum tolerated dosage [14] [mg/kg]	T/C [15]	IC50 [16] [µM]	IC50 [17] [µM]	IC50 [18] [µM]	IC50 [19] [µM]	IC50 [20] [µM]
CC(=O)c1c(C)c2cnc(Nc3ccc(N4CCNCC4)cn3)nc2n(C2CCCC2)c1=O [Palbociclib, reference compound]	47 ± 25	–	–	–	–	–	–	–	–	–	–	–	–	–	–	–	–	–	–	–
CN(C)C(=O)c1cc2cnc(Nc3ccc(N4CCNCC4)cn3)nc2n1C1CCCC1 [Ribociclib, 7-cyclopentyl-2-(5-piperazin-1-yl-pyridin-2-ylamino)-7H-pyrrolo[2,3-d]pyrimidine-6-carboxylic acid dimethylamide]	–	> 10	0.62	> 10	> 10	> 10	-12	> 10	1.01	> 10	1.92	far less active	1.62	250	32	> 10	> 10	> 10	2.39	> 10
